“Also recorded” adds a separate entry of the source.
Assays:
synovial fibroblasts = assay: In vitro cartilage degradation by RA synovial fibroblasts (sGAG release); type: cell-based, human; details: for Release of sGAG: 14 days
Experimental: (§1) Methods: The effect of RXR antagonists on the activity of synovial fibroblasts, dependent on their state of activation, i.e. modified by a concomitant stimulation by the inflammatory cytokine Interleukin-1β (IL-1β), was determined. Furthermore, it was determined whether this was accompanied by a modulation in the accumulation of the mRNA encoding catabolic enzyme matrix metalloproteinase-1 (MMP-1), responsible for degradation of human cartilage and consequently joint destruction in man. Adherent synovial fluid cells taken from a patient with RA were used after 5 passages in an in vitro assay for cartilage destruction. The cells incubated in flasks coated with 0.1% (0.1 g/100 ml) human cartilage powder were fixed using Matrigel® (BD Biosciences, Becton, Dickinson & Co., Boston, Mass., USA). The release of sulphated glycosaminoglycan (sGAG) into the culture medium was monitored by a commercial colorimetric test according to a method described by S. Björnsson, see Anal. Biochem. 256, 229-237 (1998) using an alcian blue dot plot analysis, and the accumulation of mRNA encoding MMP-1 was quantified by real time PCR (TaqMan® (Roche Diagnostics, Basle, Switzerland)).
The retinoid agonists all-trans retinoic acid and 9-cis retinoic acid, both physiological metabolites of vitamin A, as well as the RXR antagonist compound A, diluted first in ethanol, and then diluted with vehicle or medium to the desired dose/concentration were tested in a time course (0-35 days for the in vitro assay, 0-48 hours for MMP-1 mRNA, see tables 7, 8 and 10) and dose-dependent (10^−7 to 10^−9 M, see tables 5, 6 and 9). This was conducted in the presence or absence of IL-1β (100 pg/ml).

MMP-1 mRNA = MMP-1 mRNA accumulation in synovial fibroblasts (real time PCR); type: cell-based, human
Experimental: as §1, with “Switzerland)). […] This was conducted in the presence or absence of IL-1β (100 pg/ml).” for “Switzerland)).”

MMP-9 = MMP-9 protein expression in human PBMC (zymography and ELISA); type: cell-based; details: for MMP-9 Inhibition of expression: vs vehicle control (0%)
Text: For details on the method see: (A) Effect of RXR antagonists on expression of MMP-9 protein in human peripheral blood mononuclear cells (PBMC) in vitro, Leppert D et al, J Immunol 1995, 154:4379-4389; (B) Leppert D et al, Ann Neurol 1996, 40: 846-852; (C) Leppert D et al, Brain 1998, 121, 2327-2334; (D) Lindberg R et al, Brain 2001, 124: 1743-1753; (E) Gilli F et al, Brain 2004, 127: 1-10, which are incorporated by reference herein, especially with regard to the method.
Method: Fresh human peripheral blood mononuclear cells (PBMC) were prepared and expanded by stimulation with PHA as described in Leppert D et al, Ann Neurol 1996; 40: 846-852. 1×10^6 cells were pretreated with the RXR antagonist compound A in concentrations of 10^−6 M, 10^−7 M and 10^−8 M for 18 hours. Vehicle was used as control.
In two different experiments, after pretreatment with compound A, PBMCs were stimulated for 24 hours with Interleukin-2 (IL-2) 50 U/ml in one group, or not stimulated with IL-2 in another group.
The effect of the mentioned concentrations of compound A was compared with vehicle controls in the IL-2 stimulated and in the non IL-2 stimulated cultures of PBMC. The expression of MMP-9 protein was determined by analysis with zymography and ELISA, see especially references (A) under “Zymographic analysis of conditioned medium (CM)” and (C) under “ELISA (enzyme linked immunosorbent assay) for MMP-9” mentioned above, respectively.

[1] = absence of IL-1β, 10^−7 M, vehicle control 48
[2] = absence of IL-1β, 10^−8 M, vehicle control 48
[3] = absence of IL-1β, 10^−8 M, day 7, control 23
[4] = absence of IL-1β, 10^−8 M, day 14, control 48
[5] = absence of IL-1β, 10^−8 M, day 21, control 84
[6] = absence of IL-1β, 10^−8 M, day 28, control 112
[7] = absence of IL-1β, 10^−8 M, day 35, control 117
[8] = absence of IL-1β, 10^−9 M, vehicle control 48
[9] = presence of 100 pg/ml IL-1β, 10^−7 M, vehicle control 173
[10] = presence of 100 pg/ml IL-1β, 10^−8 M, vehicle control 173
[11] = presence of 100 pg/ml IL-1β, 10^−8 M, day 7, control 86
[12] = presence of 100 pg/ml IL-1β, 10^−8 M, day 14, control 173
[13] = presence of 100 pg/ml IL-1β, 10^−8 M, day 21, control 212
[14] = presence of 100 pg/ml IL-1β, 10^−8 M, day 28, control 249
[15] = presence of 100 pg/ml IL-1β, 10^−8 M, day 35, control 271
[16] = presence of 100 pg/ml IL-1β, 10^−9 M, vehicle control 173
[17] = 10^−7 M, after 24 hours, vehicle control 1
[18] = 10^−8 M, 12 hours, control 1.13
[19] = 10^−8 M, 48 hours, control 1.09
[20] = 10^−8 M, after 24 hours, vehicle control 1
[21] = 10^−9 M, after 24 hours, vehicle control 1

SMILES | Release of sGAG (synovial fibroblasts; [1]) [µg/mL] | Release of sGAG (synovial fibroblasts; [2]) [µg/mL] | Cumulative sGAG release (synovial fibroblasts; [3]) [µg/mL] | Cumulative sGAG release (synovial fibroblasts; [4]) [µg/mL] | Cumulative sGAG release (synovial fibroblasts; [5]) [µg/mL] | Cumulative sGAG release (synovial fibroblasts; [6]) [µg/mL] | Cumulative sGAG release (synovial fibroblasts; [7]) [µg/mL] | Release of sGAG (synovial fibroblasts; [8]) [µg/mL] | Effect on cartilage destruction in vitro (basal activity of synovial fibroblasts) (synovial fibroblasts; absence of IL-1β, in words) | Release of sGAG (synovial fibroblasts; [9]) [µg/mL] | Release of sGAG (synovial fibroblasts; [10]) [µg/mL] | Cumulative sGAG release (synovial fibroblasts; [11]) [µg/mL] | Cumulative sGAG release (synovial fibroblasts; [12]) [µg/mL] | Cumulative sGAG release (synovial fibroblasts; [13]) [µg/mL] | Cumulative sGAG release (synovial fibroblasts; [14]) [µg/mL] | Cumulative sGAG release (synovial fibroblasts; [15]) [µg/mL] | Release of sGAG (synovial fibroblasts; [16]) [µg/mL] | MMP-1 mRNA (fold increase of baseline value) (MMP-1 mRNA; [17]) [relative units] | MMP-1 mRNA (fold increase of baseline value) (MMP-1 mRNA; 10^−8 M, 0 hours) [relative units] | MMP-1 mRNA (fold increase of baseline value) (MMP-1 mRNA; 10^−8 M, 2 hours) [relative units] | also measured
CC1=C(/C=C/C(C)=C\C=C\C(C)=C\C(=O)O)C(C)(C)CCC1 [9-cis RA, 9-cis retinoic acid, reference compound] | 189 | 107 | 44 | 107 | 206 | 253 | 292 | 64 | increased cartilage destruction in vitro in a dose-dependent manner | 221 | 189 | 68 | 189 | 330 | 407 | 441 | 204 | 2.60 | 1 | 0.98 | Effect on cartilage destruction in vitro, time course (synovial fibroblasts; presence and absence of IL-1β, in words): markedly increased cartilage destruction; MMP-1 mRNA (fold increase of baseline value) (MMP-1 mRNA; 10^−8 M, 6 hours): 1.31 relative units; MMP-1 mRNA (fold increase of baseline value) (MMP-1 mRNA; [18]): 3.39 relative units; MMP-1 mRNA (fold increase of baseline value) (MMP-1 mRNA; 10^−8 M, 24 hours): 3.79 relative units; MMP-1 mRNA (fold increase of baseline value) (MMP-1 mRNA; [19]): 1.47 relative units; MMP-1 mRNA (fold increase of baseline value) (MMP-1 mRNA; [20]): 3.39 relative units; MMP-1 mRNA (fold increase of baseline value) (MMP-1 mRNA; [21]): 1.54 relative units
CCCCOc1c(\C(C)=C/C=C/C(C)=C/C(=O)O)cc(C(C)(C)C)cc1C(C)(C)C [compound A, (2E,4E,6Z)-7-[2-butoxy-3,5-bis(1,1-dimethylethyl)phenyl]-3-methyl-2,4,6-octatrienoic acid] | 39 | 57 | 44 | 57 | 57 | 39 | 34 | 46 | no effect | 41 | 89 | 67 | 89 | 89 | 173 | 56 | 144 | 0.68 | 1 | 1.13 | Effect on production, release and/or activity (expression) of MMP-9 (MMP-9; PBMC, IL-2 stimulated and not stimulated, ELISA and zymography, in words): very strong suppressive effect; also recorded: marked suppressive or inhibitory effect; MMP-9 Protein (total protein in the supernatant) (MMP-9; PBMCs not stimulated with IL-2, 10^−6 M, 18 h pretreatment): 33 ng/mL; MMP-9 Inhibition of expression (MMP-9; PBMCs not stimulated with IL-2, 10^−6 M): 53%; MMP-9 Protein (total protein in the supernatant) (MMP-9; PBMCs not stimulated with IL-2, 10^−7 M, 18 h pretreatment): 43 ng/mL; MMP-9 Inhibition of expression (MMP-9; PBMCs not stimulated with IL-2, 10^−7 M): 39%; MMP-9 Protein (total protein in the supernatant) (MMP-9; PBMCs not stimulated with IL-2, 10^−8 M, 18 h pretreatment): 51 ng/mL; MMP-9 Inhibition of expression (MMP-9; PBMCs not stimulated with IL-2, 10^−8 M): 28%; MMP-9 Protein (total protein in the supernatant) (MMP-9; PBMCs stimulated with IL-2 50 U/ml 24 h, 10^−6 M): 29 ng/mL; MMP-9 Protein (total protein in the supernatant) (MMP-9; PBMCs stimulated with IL-2 50 U/ml 24 h, 10^−7 M): 41 ng/mL; MMP-9 Protein (total protein in the supernatant) (MMP-9; PBMCs stimulated with IL-2 50 U/ml 24 h, 10^−8 M): 40 ng/mL; MMP-9 Inhibition of expression (MMP-9; PBMCs stimulated with IL-2, 10^−6 M): 52%; MMP-9 Inhibition of expression (MMP-9; PBMCs stimulated with IL-2, 10^−7 M): 33%; MMP-9 Inhibition of expression (MMP-9; PBMCs stimulated with IL-2, 10^−8 M): 34%; Effect on IL-1β dependent cartilage destruction (sGAG) (synovial fibroblasts; presence of IL-1β, in words): markedly inhibited; MMP-1 mRNA (fold increase of baseline value) (MMP-1 mRNA; 10^−8 M, 6 hours): 0.81 relative units; MMP-1 mRNA (fold increase of baseline value) (MMP-1 mRNA; [18]): 1.12 relative units; MMP-1 mRNA (fold increase of baseline value) (MMP-1 mRNA; 10^−8 M, 24 hours): 0.87 relative units; MMP-1 mRNA (fold increase of baseline value) (MMP-1 mRNA; [19]): 0.83 relative units; MMP-1 mRNA (fold increase of baseline value) (MMP-1 mRNA; [20]): 1.12 relative units; MMP-1 mRNA (fold increase of baseline value) (MMP-1 mRNA; [21]): 1.05 relative units
